Values of other authors, collected in patent publication US20230111350A1, “Opthalmic Compositions for Treating Coronaviruses” (priority 2020, published 2023).

Legend:
[1] = systemic administration; dependent on daily dose by weight
[2] = relative to chloroquine
SARS-CoV-2 = conditions: relative to chloroquine

CCN(CC)CCCC(C)Nc1ccnc2cc(Cl)ccc12 (stereo not shown) [chloroquine]
toxicity in ARPE-19 cells (ARPE-19): vacuole formation and cell death

CCN(CCO)CCCC(C)Nc1ccnc2cc(Cl)ccc12 (stereo not shown) [hydroxychloroquine]
percentage of patients testing positive for COVID-19 (COVID-19; after 6 days, 600 mg/day oral, untreated 90%): 25% | viral load (COVID-19; oral administration): strong reduction in viral load | prevalence of retinal toxicity [1]: ≤ 7.5% | toxicity profile [2]: reduced toxicity profile | potency at inhibiting SARS-CoV-2 in vitro (SARS-CoV-2): more potent than chloroquine

Oc1c(I)cc(Cl)c2cccnc12 [clioquinol]
effect on chloroquine-associated toxicity in ARPE-19 cells (ARPE-19; co-treatment with chloroquine, zinc-dependent, by reversing autophagy arrest): attenuated the chloroquine-associated toxicity
